Laboratory results published in patent publication US20130231291A1, “FERMENTED SOYA BASED MIXTURE COMPRISING ISOFLAVONES- AGLICONES, EQUOL AND LUNASIL, PROCESS FOR THE PREPARATION AND USES THEREOF IN FOOD, MEDICAL AND COSMETIC FIELDS” (priority 2010, published 2013).

Legend:
Format in all cases: cell-based, human
Caco-2/TC7 cells [1] = experiment: Nitric oxide (NO) release, Griess reagent; settings: pre-treated 24 h at 10 μM (soya milk: equol 10 μM), then IFN-γ 1000 U/ml + LPS 100 ng/ml for 24 h
Method: The cells have been pre-treated for 24 h with chemical compounds (10 μM) used as standards (equol, daidzein, genistein and glycitein) and soya milk, obtained from biological soya flour, not fermented or fermented using mixed selected starter, diluted at equol final concentration of 10 μM and sterile filtered. Successively, the cells have been stimulated with γ-interpheron (IFN-γ) (1000 U/ml) and lipopolysaccharide (LPS) (100 ng/ml) for 24 h. DMEM culture medium containing DMSO (1%, v/v) or methanol (0.5%, v/v) has been used as negative control. Data are the average of three triplicate experiments. Asterisk indicates meaningful differences (P<0.01) compared to negative control.
The nitric oxide release (NO) from Caco-2/TC7 cells has been determined by measuring the oxidation products, i.e. nitrite and nitrate. After incubation with the different preparations, the supernatant of cell cultures has been mixed with an equal volume of Griess reagent (1%, p/v, sulfanilic acid in 0.5 M HCl and 0.1%, p/v, N-1-naphthylethylendiamine hydrochloride). After 30 min of incubation at room temp., the absorbance at 540 nm has been measured Nitrite concentration has been determined with reference to standard curve prepared with sodium nitrite.
Preliminarily, Caco-2/TC7 cells have been treated for 24 h at concentration of 10 μM with the OFS fermented soya milk and diluted at equol final concentration of 10 μM or with not fermented soya milk. […] Successively, Caco-2/TC7 cells have been stimulated with INF-γ (1000 U/ml) e LPS (100 ng/ml) per 24 h.

Caco-2/TC7 cells [2] = experiment: TEER of Caco-2/TC7 cell layer; settings: for TEER of cells stimulated with IFN-γ: IFN-γ 1000 U/ml, 24, 48 and 72 h, soya milk diluted at equol 10 μM
Method: The incubation has been carried out in the presence of γ-interpheron (IFN-γ) (1000 U/ml (-▪-); IFN-γ and soya milk, obtained from biological soya flour, not fermented (-Δ-) or fermented with the selected mixed starter, diluted at equol final concentration of 10 μM and sterile filtered. (-x-). DMEM culture medium has been used as negative control (-♦-). Data are the average of three triplicate experiments. Asterisk indicates meaningful differences (P<0.01) compared to negative control.
For TEER measurement Caco-2/TC7 cells have been inoculated (7.5×10^4 cell/ml) in a microplate container with 24 […] and a polyethylene filter (0.4 μm pore size). Before the treatment, the cells have been incubated for 21 days at 37° C. […] Integrity of cellular layer then has been determined by means of TEER measurements.
Under culture conditions of this study, Caco-2/TC7 cells develop morphological and functional characteristics of enterocytes, including tight intercellular junctions, integrity thereof being measured by TEER determination. Preliminarily, TEER has been determined in the presence of standard chemical compounds (10-100 μM), fermented OFS soya milk and diluted at equol concentration of 10 μM, or not fermented OFS soya milk. […] Treatments of Caco-2/TC7 cells with INF-γ (1000 U/ml) favoured a remarkable decrease (P<0.003) of TEER value (FIG. 6).

[3] = tested on: interleukin-8 (IL-8) from Caco-2/TC7 cells; experiment: Interleukin-8 release by ELISA after IL-1β stimulation; settings: IL-1β 2 ng/ml for 24 h, then 24 h treatment at 10 μM (soya milk: equol 10 μM)
Method: DMEM culture medium containing DMSO (1%, v/v) or methanol (0.5%, v/v) has been used as negative control. Data are the average of three triplicate experiments. Asterisk indicates meaningful differences (P<0.01) compared to negative control.
For measurement of released interleukin-8 (IL-8) Caco-2/TC7 cells have previously been incubated (24 h) with interleukin-1β and then stimulated for further 24 h with the different preparations. The synthesis of pro-inflammatory IL-8 has been determined by ELISA assay (Bender MedSystems). The quantification has been carried out using a standard curve according to .kit instructions
Interleukin-8 (IL-8) is a member of C—X—C chemokine family and plays a fundamental role in activation of neutrophil cells, thus initiating the inflammatory response. When Caco-2/TC7 cells are subjected to a treatment with inteleukin-1β (2 ng/ml) has been observed a meaningful increment (P<0.001) of IL-8 synthesis (FIG. 7).

Caco-2/TC7 cells [4] = experiment: Neutral Red uptake cytotoxicity assay; settings: standard chemical compounds 5-100 μM; vs methanol and DMSO negative control
Method: Human origin Caco-2 cells (clone TC7) have been cultured in Dulbecco (DMEM) medium, added with bovine foetal serum (10%), not essential amino acids (1%), gentamycin/streptomycin (50 μg/ml), glutamine (2 mM) and 4-2-hydroxyethyl-1-piperazinyl-ethanesulfonic acid (1%) (Di Cagno et al., 2010. Quorum sensing in sourdough Lactobacillus plantarum DC400: induction of plantaricin A (PlnA) under co-cultivation with other lactic acid bacteria and effect of PlnA on bacterial and Caco-2 cells. Proteomics in press). The cells viability has been determined by uptake assay of Neutral Red dye (Balls et al., 1987. Approaches to validation alternative methods in toxicology. In: Goldber A. M. (Ed). N.Y. Academic Press pp. 45-58). After treatment for 24-72 h with the different preparations, the cells have been washed with PBS buffer and incubated for 4 h at 37° C. with Neutral Red solution (33 mg/l). […] Plate reading has been carried out using Novapath reader (Biorad, Hercules, Calif.) (Di Cagno et al., 2010).
With the purpose to test immunomodulating properties of isoflavones-aglicones contained in soya milk produced from biological soya flour (OFS), cytotoxicity against Caco-2/TC7 cells by standard chemical compounds (equol, daidzein, genistein and glycitein) at concentrations of 5-100 μM using Neutral Red (NR) uptake assay, firstly has been evaluated.

SMILES	NO release after IFN-γ and LPS stimulation (Caco-2/TC7 cells [1])	TEER of cells stimulated with IFN-γ (Caco-2/TC7 cells [2])	IL-8 synthesis [3]	cell proliferation (Neutral Red uptake) (Caco-2/TC7 cells [4])	effects on TEER without IFN-γ (Caco-2/TC7 cells [2]; equol at 100 μM, 72 h of incubation)
COc1cc2c(=O)c(-c3ccc(O)cc3)coc2cc1O [glycitein]	considerable inhibition	trend similar to fermented OFS soya milk	did not resulted in (P<0.10) a decrement		
O=c1c(-c2ccc(O)cc2)coc2cc(O)cc(O)c12 [genistein]	considerable inhibition	trend similar to fermented OFS soya milk	did not resulted in (P<0.10) a decrement	did not affect significantly cell proliferation	
O=c1c(-c2ccc(O)cc2)coc2cc(O)ccc12 [daidzein]	significantly increased	has not interfered with the negative effect caused by INF-γ	meaningful decrement		
Oc1ccc([C@H]2COc3cc(O)ccc3C2)cc1 [equol]	inhibited in a marked manner	trend similar to fermented OFS soya milk	meaningful decrement		exception
